{
  "source": "patent US20090170939A1",
  "about": "“Use of Fenofibrate or a Derivative Thereof for Preventing Diabetic Retinopathy” (Laboratoires Fournier S.A., priority 2005, published 2009)",
  "system": "diabetic retinopathy in patients with type 2 diabetes",
  "assay": "FIELD study: laser treatment for diabetic retinopathy (tertiary outcome)",
  "assay_type": "in vivo, human",
  "details": "follow-up more than 5 years",
  "source_text": "As fibrates are known to correct the typical dyslipidaemia of diabetes, their role in cardiovascular risk reduction in diabetes may be especially important. A study called Fenofibrate Intervention and Event Lowering in Diabetes (FIELD) has been carried out which study is a multicentre, double-blind, placebo-controlled trail evaluating the effects on coronary morbidity and mortality of long-term treatment with fenofibrate to elevate high-density lipoprotein (HDL) cholesterol levels and lower triglyceride (TG) levels in patients with type 2 diabetes and total blood cholesterol between 3 and 6.5 mmol/L (115 and 250 mg/dL) at study entry. In type 2 diabetes, rates of coronary heart disease (CDH) are 3 to 4 times higher than those of persons without diabetes at any given level of blood cholesterol, and at any given age. […] Further, people with type 2 diabetes have both higher in hospital mortality after myocardial infarction (MI) and a poorer outcome in the subsequent years, losing on average between 5 and 10 years of life expectancy.\nThe study was is randomized, double-blind, placebo-controlled parallel-group trial among middle-aged to elderly people with type 2 diabetes mellitus considered to be at increased risk of CHD. Those with and without pre-existing vascular disease or other lipid abnormalities, such as low HDL cholesterol and elevated TG, were eligible, provided the total blood cholesterol level at screening fell between 3.0 and 6.5 mmol/L (about 115-250 mg/dL) plus either a total-to-HDL cholesterol ratio of >4.0 or a blood TG level >1.0 mmol/L (88.6 mg/dL). The study has been conducted in 63 clinical centres in Australia (39), Finland (9) and New Zealand (15).\nThe underlying principle guiding recruitment of patients into the study was that of clinical uncertainty: that is, patients were only to be considered if the patients' treating physicians were substantially uncertain about the value of lipid-modifying therapy for that particular individual and felt that there was no indication for lipid-modifying therapy. […]",
  "data": [
    {"smiles": "CC(C)OC(=O)C(C)(C)Oc1ccc(C(=O)c2ccc(Cl)cc2)cc1", "note": "[Fenofibrate, 1-methylethyl ester (isopropyl ester) of fenofibric acid]", "values": [
      {"measurement": "Patients with laser treatment for diabetic retinopathy (one or more laser treatments), %", "setting": "fenofibrate 200 mg comicronized, one capsule daily, type 2 diabetes", "result": 3.6, "unit": "%"},
      {"measurement": "Incident cases (first laser treatment for retinopathy post-randomisation), %", "setting": "fenofibrate 200 mg daily", "result": 2.3, "unit": "%"},
      {"measurement": "Prevalent cases (all reported laser treatments post-randomisation), %", "setting": "fenofibrate 200 mg daily", "result": 7.3, "unit": "%"}
    ]}
  ]
}
